In patent US9873709B2 (priority 2013, dated 2018):
Like-named read-outs stand apart in the source and are kept apart here.

Columns and labels:
[1] = tested on: JAK1-dependent STAT6 phosphorylation downstream of IL-13 stimulation in BEAS-2B human bronchial epithelial cells; assay: cells; settings: read-out: IL13-pSTAT6 BEASB2B IC50
[2] = target: isolated recombinant JAK2 kinase domain (Homo sapiens (Human), UniProt O60674); settings: read-out: JAK2 Ki
[3] = tested on: JAK1-dependent STAT6 phosphorylation downstream of IL-13 stimulation in TF-1 human erythroleukemia cells; assay: cells; settings: TF-1, read-out: IL-13-pSTAT6 IC50
[4] = isolated recombinant JAK2 kinase domain, 25 μM ATP

isolated recombinant JAK2 kinase domain, sequence (O60674 849-1124): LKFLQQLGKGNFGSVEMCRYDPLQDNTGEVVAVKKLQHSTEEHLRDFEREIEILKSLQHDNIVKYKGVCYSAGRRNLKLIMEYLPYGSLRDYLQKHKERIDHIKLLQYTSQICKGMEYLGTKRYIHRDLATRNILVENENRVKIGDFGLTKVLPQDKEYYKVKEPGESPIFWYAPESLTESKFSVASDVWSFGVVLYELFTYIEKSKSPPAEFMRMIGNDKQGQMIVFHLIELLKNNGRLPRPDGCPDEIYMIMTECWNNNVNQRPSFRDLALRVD

Ki [2, 4] [nM]	IC50 [3] [nM]	SMILES	IC50 [1] [nM]	Ki [2] [nM]
0.7	25.8	O=C(c1ccc(Nc2nc3c(N4CCC(O)(c5ccc(Cl)cc5)CC4)cccn3n2)cc1)N1CCN(Cc2cccnc2)CC1 [Example 1-123, [4-[[8-[4-(4-chlorophenyl)-4-hydroxy-1-piperidyl]-[1,2,4]triazolo[1,5-a]pyridin-2-yl]amino]phenyl]-[4-(3-pyridylmethyl)piperazin-1-yl]methanone]	–	–
1.74	37.7	CC(C)N1CCC(CN(C)C(=O)c2ccc(Nc3nc4c(N5CCC(O)(c6ccc(Cl)cc6)CC5)cccn4n3)cc2)C1 (stereo not shown) [Example 1-129, 4-[[8-[4-(4-chlorophenyl)-4-hydroxy-1-piperidyl]-[1,2,4]triazolo[1,5-a]pyridin-2-yl]amino]-N-[(1-isopropylpyrrolidin-3-yl)methyl]-N-methyl-benzamide]	–	–
1.95	20.6	CN(C)CCN1CCN(C(=O)c2ccc(Nc3nc4c(N5CCC(O)(c6ccc(Cl)cc6)CC5)cccn4n3)cc2)CC1 [Example 1-139, [4-[[8-[4-(4-chlorophenyl)-4-hydroxy-1-piperidyl]-[1,2,4]triazolo[1,5-a]pyridin-2-yl]amino]phenyl]-[4-[2-(dimethylamino)ethyl]piperazin-1-yl]methanone]	–	–
0.64	37.3	CN1CCC(CCNC(=O)c2ccc(Nc3nc4c(N5CCC(O)(c6ccc(Cl)cc6)CC5)cccn4n3)cc2)CC1 [Example 1-154, 4-[[8-[4-(4-chlorophenyl)-4-hydroxy-1-piperidyl]-[1,2,4]triazolo[1,5-a]pyridin-2-yl]amino]-N-[2-(1-methyl-4-piperidyl)ethyl]benzamide]	–	–
2.86	12.1	N#CCCN1CCN(C(=O)c2ccc(Nc3nc4c(N5CCC(O)(c6ccc(Cl)cc6)CC5)cccn4n3)cc2)CC1 [Example 1-167, 3-[4-[4-[[8-[4-(4-chlorophenyl)-4-hydroxy-1-piperidyl]-[1,2,4]triazolo[1,5-a]pyridin-2-yl]amino]benzoyl]piperazin-1-yl]propanenitrile]	–	–
0.98	15.5	CN1CCCC(CN(C)C(=O)c2ccc(Nc3nc4c(N5CCC(O)(c6ccc(Cl)cc6)CC5)cccn4n3)cc2)C1 (stereo not shown) [Example 1-170, 4-[[8-[4-(4-chlorophenyl)-4-hydroxy-1-piperidyl]-[1,2,4]triazolo[1,5-a]pyridin-2-yl]amino]-N-methyl-N-[(1-methyl-3-piperidyl)methyl] benzamide]	–	–
2.45	23.1	O=C(NCCN1CCCCC1)c1ccc(Nc2nc3c(N4CCC(O)(c5ccc(Cl)cc5)CC4)cccn3n2)cc1 [Example 1-173, 4-[[8-[4-(4-chlorophenyl)-4-hydroxy-1-piperidyl]-[1,2,4]triazolo[1,5-a]pyridin-2-yl]amino]-N-[2-(1-piperidyl)ethyl]benzamide]	–	–
2.31	31.1	CNC(=O)C1CN(C(C)C)CCN1C(=O)c1ccc(Nc2nc3c(N4CCC(O)(c5ccc(Cl)cc5)CC4)cccn3n2)cc1 (stereo not shown) [Example 1-174, 1-[4-[[8-[4-(4-chlorophenyl)-4-hydroxy-1-piperidyl]-[1,2,4]triazolo[1,5-a]pyridin-2-yl]amino]benzoyl]-4-isopropyl-N-methyl-piperazine-2-carboxamide]	–	–
1.07	98.3	CN1CCC(OC(=O)c2ccc(Nc3nc4c(N5CCC(O)(c6ccc(Cl)cc6)CC5)cccn4n3)cc2)CC1 [Example 1-178, (1-methyl-4-piperidyl) 4-[[8-[4-(4-chlorophenyl)-4-hydroxy-1-piperidyl]-[1,2,4]triazolo[1,5-a]pyridin-2-yl]amino]benzoate]	–	–

Continued, compound first:

SMILES	Ki [2, 4] [nM]	IC50 [3] [nM]	IC50 [1] [nM]	Ki [2] [nM]
CC1CN(C2CCN(C(=O)c3ccc(Nc4nc5c(N6CCC(O)(c7ccc(Cl)cc7)CC6)cccn5n4)cc3)CC2)CC(C)O1 (stereo not shown) [Example 1-118, [4-[[8-[4-(4-chlorophenyl)-4-hydroxy-1-piperidyl]-[1,2,4]triazolo[1,5-a]pyridin-2-yl]amino]phenyl]-[4-(2,6-dimethylmorpholin-4-yl)-1-piperidyl]methanone]	–	–	112	–
CN(Cc1cccnc1)C(=O)c1ccc(Nc2nc3c(N4CCC(O)(c5ccc(Cl)cc5)CC4)cccn3n2)cc1 [Example 1-138, 4-[[8-[4-(4-chlorophenyl)-4-hydroxy-1-piperidyl]-[1,2,4]triazolo[1,5-a]pyridin-2-yl]amino]-N-methyl-N-(3-pyridylmethyl)benzamide]	3.56	135	–	–
O=C(c1ccc(Nc2nc3c(N4CCC(O)(c5ccc(Cl)cc5)CC4)cccn3n2)cc1)N1CCCC1c1ccncc1 (stereo not shown) [Example 1-147, [4-[[8-[4-(4-chlorophenyl)-4-hydroxy-1-piperidyl]-[1,2,4]triazolo[1,5-a]pyridin-2-yl]amino]phenyl]-[2-(4-pyridyl)pyrrolidin-1-yl]methanone]	1.41	66.5	–	–
CNC(=O)C1CN(C(=O)c2ccc(Nc3nc4c(N5CCC(O)(c6ccc(Cl)cc6)CC5)cccn4n3)cc2)CCN1Cc1ccccc1 (stereo not shown) [Example 1-153, 1-benzyl-4-[4-[[8-[4-(4-chlorophenyl)-4-hydroxy-1-piperidyl]-[1,2,4]triazolo[1,5-a]pyridin-2-yl]amino]benzoyl]-N-methyl-piperazine-2-carboxamide]	1.14	26	–	–
CN1CCC(N(C)C(=O)c2ccc(Nc3nc4c(N5CCC(CO)(c6ccc(Cl)cc6)CC5)cccn4n3)cc2)CC1 [Example 1-246]	–	5.4	–	0.33
CN1CCC(N(C)C(=O)c2ccc(Nc3nc4c(N5CCC(c6ccc(Cl)cc6)(C(O)C(F)(F)F)CC5)cccn4n3)cc2)CC1 (stereo not shown) [Example 1-253, 4-[[8-[4-(4-chlorophenyl)-4-(2,2,2-trifluoro-1-hydroxy-ethyl)-1-piperidyl]-[1,2,4]triazolo[1,5-a]pyridin-2-yl]amino]-N-methyl-N-(1-methyl-4-piperidyl)benzamide]	–	–	418	–
CN1CCC(N(C)C(=O)c2ccc(Nc3nc4c(N5CCC(c6ccc(Cl)cc6)(C(O)CO)CC5)cccn4n3)cc2)CC1 (stereo not shown) [Example 1-270, 4-[[8-[4-(4-chlorophenyl)-4-(1,2-dihydroxyethyl)-1-piperidyl]-[1,2,4]triazolo[1,5-a]pyridin-2-yl]amino]-N-methyl-N-(1-methyl-4-piperidyl)benzamide]	–	–	114	–
O=C(Cn1cc(Nc2nc3c(N4CCC(CO)(c5ccc(Cl)cc5)CC4)cccn3n2)cn1)N1CCC(CN2CCOCC2)CC1 [Example 1-289, 2-[4-[[8-[4-(4-chlorophenyl)-4-(hydroxymethyl)-1-piperidyl]-[1,2,4]triazolo[1,5-a]pyridin-2-yl]amino]pyrazol-1-yl]-1-[4-(morpholinomethyl)-1-piperidyl]ethanone]	–	–	8.1	–
CNC1CCN(C(=O)Cn2cc(Nc3nc4c(N5CCC(CO)(c6ccc(Cl)cc6)CC5)cccn4n3)cn2)CC1 [Example 1-291, 2-[4-[[8-[4-(4-chlorophenyl)-4-(hydroxymethyl)-1-piperidyl]-[1,2,4]triazolo[1,5-a]pyridin-2-yl]amino]pyrazol-1-yl]-1-[4-(methylamino)-1-piperidyl]ethanone]	–	–	525	–
CN1CCC(N(C)C(=O)c2ccc(Nc3nc4c(C5=CCC(CC#N)(c6ccc(Cl)cc6)CC5)cccn4n3)cc2)CC1 (stereo not shown) [Example 1-294, 4-([8-[4-(4-chlorophenyl)-4-(cyanomethyl)cyclohex-1-en-1-yl]-[1,2,4]triazolo[1,5-a]pyridin-2-yl]amino)-N-methyl-N-(1-methylpiperidin-4-yl)benzamide]	–	62.7	–	0.4
O=C(NCCCN1CCOCC1)c1ccc(Nc2nc3c(C4C=CN(C(=O)CCC(F)(F)F)CC4)cccn3n2)cc1 (stereo not shown) [Example 1-295, N-(3-morpholinopropyl)-4-[[8-[1-(4,4,4-trifluorobutanoyl)-3,4-dihydro-2H-pyridin-4-yl]-[1,2,4]triazolo[1,5-a]pyridin-2-yl]amino]benzamide]	–	–	729	–
CN(CCC#N)C1CCN(C(=O)Cn2cc(Nc3nc4c(N5CCC(CO)(c6ccc(Cl)cc6)CC5)cccn4n3)cn2)CC1 [Example 1-296, 3-[[1-[2-[4-[[8-[4-(4-chlorophenyl)-4-(hydroxymethyl)-1-piperidyl]-[1,2,4]triazolo[1,5-a]pyridin-2-yl]amino]pyrazol-1-yl]acetyl]-4-piperidyl]-methyl-amino]propanenitrile]	–	–	12.6	–
CC(C)CN1CCC(N(C)C(=O)Cn2cc(Nc3nc4c(C5=CCN(C(=O)CCC(F)(F)F)CC5)cccn4n3)cn2)CC1 [Example 1-297, N-methyl-N-[1-(2-methylpropyl)piperidin-4-yl]-2-[4-([8-[1-(4,4,4-trifluorobutanoyl)-1,2,3,6-tetrahydropyridin-4-yl]-[1,2,4]triazolo[1,5-a]pyridin-2-yl]amino)-1H-pyrazol-1-yl]acetamide]	–	36.7	–	9.44
CN1CCC(N(C)C(=O)c2ccc(Nc3nc4c(N5CCC(CC(N)=O)(c6ccc(Cl)cc6)CC5)cccn4n3)cc2)CC1 [Example 1-298]	0.45	125	–	–
CN1CCC(N(C)C(=O)c2ccc(Nc3nc4c(N5CCC(CC(=O)N(C)C)(c6ccc(Cl)cc6)CC5)cccn4n3)cc2)CC1 [Example 1-300, 4-([8-[4-(4-chlorophenyl)-4-[(dimethylcarbamoyl)methyl]piperidin-1-yl]-[1,2,4]triazolo[1,5-a]pyridin-2-yl]amino)-N-methyl-N-(1-methylpiperidin-4-yl)benzamide]	0.55	26.3	–	–
CCOC(=O)N1CC=C(c2cccn3nc(Nc4ccc(C(=O)N5CCC(N6CCOCC6)CC5)cc4)nc23)CC1 [Example 2-18, ethyl 4-[2-[4-(4-morpholinopiperidine-1-carbonyl)anilino]-[1,2,4]triazolo[1,5-a]pyridin-8-yl]-3,6-dihydro-2H-pyridine-1-carboxylate]	–	–	134	–
CCOC(=O)N1CC=C(c2cccn3nc(Nc4ccc(C(=O)N5CCC(N6CC(C)OC(C)C6)CC5)cc4)nc23)CC1 (stereo not shown) [Example 2-63, ethyl 4-[2-[4-[4-(2,6-dimethylmorpholin-4-yl)piperidine-1-carbonyl]anilino]-[1,2,4]triazolo[1,5-a]pyridin-8-yl]-3,6-dihydro-2H-pyridine-1-carboxylate]	–	–	151	–
